From PubChem BioAssay AID1745844 (Carcinogenic Potency Database (CPDB), 2022)
Activity calls are given as the source filed them. How the calls were made is not given here.

Test system: rodent lifetime carcinogenesis bioassay, tumor incidence TD50
Experiment: carcinogenic potency in animals, long-term in vivo studies, CPDB compilation (AID 1745844)

For `CCc1cccc2c3c([nH]c12)C(CC)(CC(=O)O)OCC3` (configuration not stated), which carcinogen call (mouse, strain Charles River CD1, females, in feed, site: any site (literature study), lesion: benign tumor, dosed 78 weeks, study length 78 weeks) is on record?
The carcinogen call was “negative (inactive)”.

And the TD50 (mouse, strain Charles River CD1, females, in feed, site: any site (literature study), lesion: malignant tumor, dosed 78 weeks, study length 78 weeks)?
The TD50 was 336 mg/kg/day (inactive).

What about the carcinogen call (mouse, strain Charles River CD1, females, in feed, site: any site (literature study), lesion: several types, types named in the paper, dosed 78 weeks, study length 78 weeks) of the same molecule?
Its carcinogen call is “negative (inactive)”.

And the carcinogen call (mouse, strain Charles River CD1, females, in feed, site: liver, lesion: hepatocellular adenoma, dosed 78 weeks, study length 78 weeks)?
The carcinogen call was “negative (inactive)”.

What about the carcinogen call (mouse, strain Charles River CD1, females, in feed, site: lung, lesion: alveolar/bronchiolar carcinoma, dosed 78 weeks, study length 78 weeks) of the same molecule?
The carcinogen call was “negative (inactive)”.

What about the carcinogen call (mouse, strain Charles River CD1, males, in feed, site: any site (literature study), lesion: benign tumor, dosed 78 weeks, study length 78 weeks) of the same molecule?
The carcinogen call was “negative (inactive)”.

And the carcinogen call (mouse, strain Charles River CD1, males, in feed, site: any site (literature study), lesion: malignant tumor, dosed 78 weeks, study length 78 weeks)?
Its carcinogen call is “negative (inactive)”.

And the carcinogen call (mouse, strain Charles River CD1, males, in feed, site: any site (literature study), lesion: several types, types named in the paper, dosed 78 weeks, study length 78 weeks)?
Its carcinogen call is “negative (inactive)”.

And the carcinogen call (mouse, strain Charles River CD1, males, in feed, site: liver, lesion: hepatocellular adenoma, dosed 78 weeks, study length 78 weeks)?
The carcinogen call was “negative (inactive)”.

What about the carcinogen call (mouse, strain Charles River CD1, males, in feed, site: liver, lesion: hepatocellular carcinoma, dosed 78 weeks, study length 78 weeks) of the same molecule?
The carcinogen call was “negative (inactive)”.

And the carcinogen call (rat, strain Charles River CD (Sprague-Dawley), females, in feed, site: any site (literature study), lesion: benign tumor, dosed 104 weeks, study length 104 weeks)?
Its carcinogen call is “negative (inactive)”.

What about the carcinogen call (rat, strain Charles River CD (Sprague-Dawley), females, in feed, site: any site (literature study), lesion: malignant tumor, dosed 104 weeks, study length 104 weeks) of the same molecule?
The carcinogen call was “negative (inactive)”.

And the carcinogen call (rat, strain Charles River CD (Sprague-Dawley), females, in feed, site: any site (literature study), lesion: several types, types named in the paper, dosed 104 weeks, study length 104 weeks)?
Its carcinogen call is “negative (inactive)”.

And the carcinogen call (rat, strain Charles River CD (Sprague-Dawley), females, in feed, site: liver, lesion: hepatocellular carcinoma, dosed 104 weeks, study length 104 weeks)?
Its carcinogen call is “negative (inactive)”.

What about the TD50 (rat, strain Charles River CD (Sprague-Dawley), females, in feed, site: liver, lesion: neoplastic nodule, dosed 104 weeks, study length 104 weeks) of the same molecule?
Its TD50 is 1010 mg/kg/day (inactive).

What about the carcinogen call (rat, strain Charles River CD (Sprague-Dawley), males, in feed, site: any site (literature study), lesion: benign tumor, dosed 104 weeks, study length 104 weeks) of the same molecule?
Its carcinogen call is “negative (inactive)”.

What about the carcinogen call (rat, strain Charles River CD (Sprague-Dawley), males, in feed, site: any site (literature study), lesion: malignant tumor, dosed 104 weeks, study length 104 weeks) of the same molecule?
The carcinogen call was “negative (inactive)”.

And the carcinogen call (rat, strain Charles River CD (Sprague-Dawley), males, in feed, site: any site (literature study), lesion: several types, types named in the paper, dosed 104 weeks, study length 104 weeks)?
Its carcinogen call is “negative (inactive)”.

And the carcinogen call (rat, strain Charles River CD (Sprague-Dawley), males, in feed, site: liver, lesion: hepatocellular carcinoma, dosed 104 weeks, study length 104 weeks)?
The carcinogen call was “negative (inactive)”.

What about the TD50 (rat, strain Charles River CD (Sprague-Dawley), males, in feed, site: liver, lesion: neoplastic nodule, dosed 104 weeks, study length 104 weeks) of the same molecule?
Its TD50 is 1400 mg/kg/day (inactive).

Which results are given for `Clc1ccccc1`?
TD50 (mouse, strain B6C3F1, females, by gavage, site: any site (literature study), lesion: several types, types named in the paper, dosed 103 weeks, study length 105 weeks): 373 mg/kg/day (inactive); TD50 (mouse, strain B6C3F1, females, by gavage, site: liver, lesion: hepatocellular adenoma + hepatocellular carcinoma + neoplastic nodule, dosed 103 weeks, study length 105 weeks): 235 mg/kg/day; TD50 (mouse, strain B6C3F1, females, by gavage, site: lung, lesion: alveolar/bronchiolar adenoma + alveolar/bronchiolar carcinoma, dosed 103 weeks, study length 105 weeks): 623 mg/kg/day; TD50 (mouse, strain B6C3F1, males, by gavage, site: any site (literature study), lesion: several types, types named in the paper, dosed 103 weeks, study length 105 weeks): 60.1 mg/kg/day (inactive); TD50 (mouse, strain B6C3F1, males, by gavage, site: liver, lesion: hepatocellular adenoma + hepatocellular carcinoma + neoplastic nodule, dosed 103 weeks, study length 105 weeks): 382 mg/kg/day; TD50 (mouse, strain B6C3F1, males, by gavage, site: lung, lesion: alveolar/bronchiolar adenoma + alveolar/bronchiolar carcinoma, dosed 103 weeks, study length 105 weeks): 190 mg/kg/day; TD50 (rat, strain Fischer 344, females, by gavage, site: liver, lesion: hepatocellular adenoma + hepatocellular carcinoma + neoplastic nodule, dosed 103 weeks, study length 104 weeks): 867 mg/kg/day; TD50 (rat, strain Fischer 344, females, by gavage, site: parathyroid + thyroid gland + thyroid follicle, lesion: adenoma, NOS + follicular-cell carcinoma + cystadenoma, NOS, dosed 103 weeks, study length 104 weeks): 520 mg/kg/day (inactive); TD50 (rat, strain Fischer 344, males, by gavage, site: any site (literature study), lesion: several types, types named in the paper, dosed 103 weeks, study length 104 weeks): 190 mg/kg/day; TD50 (rat, strain Fischer 344, males, by gavage, site: liver, lesion: hepatocellular adenoma + hepatocellular carcinoma + neoplastic nodule, dosed 103 weeks, study length 104 weeks): 328 mg/kg/day; TD50 (rat, strain Fischer 344, males, by gavage, site: liver, lesion: neoplastic nodule, dosed 103 weeks, study length 104 weeks): 247 mg/kg/day

Which results are given for `CCOc1nc2cccc(C(=O)OC(C)OC(=O)OC3CCCCC3)c2n1Cc1ccc(-c2ccccc2-c2nn[nH]n2)cc1` (configuration not stated)?
TD50 (rat, strain Fischer 344/Jcl, females, in feed, site: any site (literature study), lesion: several types, types named in the paper, dosed 104 weeks, study length 104 weeks): 11200 mg/kg/day (inactive); carcinogen call (rat, strain Fischer 344/Jcl, females, in feed, site: liver, lesion: hepatocellular adenoma, dosed 104 weeks, study length 104 weeks): negative (inactive); carcinogen call (rat, strain Fischer 344/Jcl, males, in feed, site: any site (literature study), lesion: several types, types named in the paper, dosed 104 weeks, study length 104 weeks): negative (inactive); carcinogen call (rat, strain Fischer 344/Jcl, males, in feed, site: liver, lesion: hepatocellular adenoma, dosed 104 weeks, study length 104 weeks): negative (inactive)

Which results are given for `S=C(SN1CCOCC1)N1CCOCC1`?
TD50 (rat, strain Sprague-Dawley, females, in feed, site: kidney, lesion: several types, types named in the paper, dosed 112 weeks, study length 112 weeks): 338 mg/kg/day; TD50 (rat, strain Sprague-Dawley, females, in feed, site: kidney, lesion: squamous-cell carcinoma, dosed 112 weeks, study length 112 weeks): 571 mg/kg/day; TD50 (rat, strain Sprague-Dawley, females, in feed, site: kidney, lesion: urothelial carcinoma, dosed 112 weeks, study length 112 weeks): 571 mg/kg/day; TD50 (rat, strain Sprague-Dawley, females, in feed, site: kidney, lesion: urothelial papilloma, dosed 112 weeks, study length 112 weeks): 1740 mg/kg/day; TD50 (rat, strain Sprague-Dawley, females, in feed, site: urinary bladder, lesion: several types, types named in the paper, dosed 112 weeks, study length 112 weeks): 206 mg/kg/day; TD50 (rat, strain Sprague-Dawley, females, in feed, site: urinary bladder, lesion: squamous-cell carcinoma, dosed 112 weeks, study length 112 weeks): 1740 mg/kg/day; TD50 (rat, strain Sprague-Dawley, females, in feed, site: urinary bladder, lesion: squamous-cell papilloma, dosed 112 weeks, study length 112 weeks): 862 mg/kg/day; TD50 (rat, strain Sprague-Dawley, females, in feed, site: urinary bladder, lesion: urothelial carcinoma, dosed 112 weeks, study length 112 weeks): 862 mg/kg/day; TD50 (rat, strain Sprague-Dawley, females, in feed, site: urinary bladder, lesion: urothelial papilloma, dosed 112 weeks, study length 112 weeks): 571 mg/kg/day; TD50 (rat, strain Sprague-Dawley, females, in feed, site: urinary tract, lesion: several types, types named in the paper, dosed 112 weeks, study length 112 weeks): 96.9 mg/kg/day; TD50 (rat, strain Sprague-Dawley, males, in feed, site: kidney, lesion: several types, types named in the paper, dosed 112 weeks, study length 112 weeks): 528 mg/kg/day; TD50 (rat, strain Sprague-Dawley, males, in feed, site: kidney, lesion: squamous-cell carcinoma, dosed 112 weeks, study length 112 weeks): 1390 mg/kg/day; TD50 (rat, strain Sprague-Dawley, males, in feed, site: kidney, lesion: urothelial carcinoma, dosed 112 weeks, study length 112 weeks): 690 mg/kg/day; TD50 (rat, strain Sprague-Dawley, males, in feed, site: urinary bladder, lesion: several types, types named in the paper, dosed 112 weeks, study length 112 weeks): 130 mg/kg/day; TD50 (rat, strain Sprague-Dawley, males, in feed, site: urinary bladder, lesion: squamous-cell carcinoma, dosed 112 weeks, study length 112 weeks): 690 mg/kg/day; TD50 (rat, strain Sprague-Dawley, males, in feed, site: urinary bladder, lesion: squamous-cell papilloma, dosed 112 weeks, study length 112 weeks): 1390 mg/kg/day; TD50 (rat, strain Sprague-Dawley, males, in feed, site: urinary bladder, lesion: urothelial carcinoma, dosed 112 weeks, study length 112 weeks): 340 mg/kg/day; TD50 (rat, strain Sprague-Dawley, males, in feed, site: urinary bladder, lesion: urothelial papilloma, dosed 112 weeks, study length 112 weeks): 457 mg/kg/day; TD50 (rat, strain Sprague-Dawley, males, in feed, site: urinary tract, lesion: several types, types named in the paper, dosed 112 weeks, study length 112 weeks): 85.5 mg/kg/day

With `O=C1CCCCC1` as the molecule, how does the TD50 (mouse, strain B6C3F1, females, in drinking water, site: all sites, lesion: malignant lymphoma, dosed 104 weeks, study length 107 weeks) read?
The TD50 was 3690 mg/kg/day.

And the TD50 (rat, strain Fischer 344, females, in drinking water, site: liver, lesion: neoplastic nodule, dosed 104 weeks, study length 107 weeks)?
Its TD50 is 6300 mg/kg/day.

What about the TD50 (rat, strain Fischer 344, males, in drinking water, site: adrenal gland, lesion: cortical adenoma, dosed 104 weeks, study length 107 weeks) of the same molecule?
Its TD50 is 929 mg/kg/day.

How did the TD50 (rat, strain Charles River CD (Sprague-Dawley), males, in drinking water, site: liver, lesion: hepatocellular adenoma, dosed 104 weeks, study length 104 weeks) turn out when `C[C@]12C=CC(=O)C=C1CC[C@@H]1[C@@H]2[C@@H](O)C[C@@]2(C)[C@H]1CC[C@]2(O)C(=O)CO` was run?
The TD50 was 2.16 mg/kg/day.

What about the TD50 (rat, strain Charles River CD (Sprague-Dawley), males, in drinking water, site: liver, lesion: hepatocellular carcinoma, dosed 104 weeks, study length 104 weeks) of the same molecule?
Its TD50 is 6.58 mg/kg/day.

And the TD50 (rat, strain Charles River CD (Sprague-Dawley), males, in drinking water, site: liver, lesion: several types, types named in the paper, dosed 104 weeks, study length 104 weeks)?
Its TD50 is 1.53 mg/kg/day.

And the TD50 (rat, strain Sprague-Dawley, females, by gavage, site: any site (literature study), lesion: benign tumor, dosed 78 weeks, study length 104 weeks)?
Its TD50 is 1.96 mg/kg/day (inactive).

And the carcinogen call (rat, strain Sprague-Dawley, females, by gavage, site: any site (literature study), lesion: malignant tumor, dosed 78 weeks, study length 104 weeks)?
Its carcinogen call is “negative (inactive)”.
